Assay results from patent US8952024B2, “Herbicidal pyrimidone derivatives” (E I du Pont de Nemours and Company, priority 2009, dated 2015).

Experiments:
Assay type in all cases: in vivo
[1] = test system: windgrass (Apera spica-venti); test: Test B postemergence plant response; details: Postemergence; for Windgrass plant response rating: 250 g ai/ha, scale 0 to 100
Description: At the same time, plants selected from these crop and weed species and also winter barley (Hordeum vulgare), canarygrass (Phalaris minor), chickweed (Stellaria media) and windgrass (Apera spica-venti) were planted in pots containing Redi-Earth® planting medium (Scotts Company, 14111 Scottslawn Road, Marysville, Ohio 43041) comprising spaghnum peat moss, vermiculite, wetting agent and starter nutrients and treated with postemergence applications of some of the test chemicals formulated in the same manner. Plants ranged in height from 2 to 18 cm (1- to 4-leaf stage) for postemergence treatments.
Treated plants and controls were maintained in a greenhouse for 13 to 15 days, after which time all treated plants were visually evaluated and compared to controls. Plant response ratings, summarized in Table B, are based on a scale of 0 to 100 where 0 is no effect and 100 is complete control. A dash (-) response means no test result.

[2] = test system: umbrella sedge (Cyperus difformis); test: Test B flooded paddy test; details: for Plant response rating, Flood, Sedge, Umbrella: 250 g ai/ha, flooded paddy test, visual rating on 0 to 100 scale (0 no effect, 100 complete control) after 13 to 15 days; for Plant response rating, Sedge, Umbrella: Flood (flooded paddy test), 13 to 15 days
Summary of the method: (§1)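 Rice, umbrella sedge, ducksalad and barnyardgrass were grown to the 2-leaf stage, flooded to 3 cm, and compound was applied directly to the paddy water, with that depth kept throughout. After 13 to 15 days in the greenhouse, plants were visually rated against controls on a 0 (no effect) to 100 (complete control) scale.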

rice (Oryza sativa) = test: Test B flooded paddy test; details: for Plant response rating, Flood, Rice: 250 g ai/ha, flooded paddy test, visual rating on 0 to 100 scale (0 no effect, 100 complete control) after 13 to 15 days; for Plant response rating, Rice: Flood (flooded paddy test), 13 to 15 days
Summary of the method: as §1

[3] = test system: ducksalad (Heteranthera limosa); test: Test B flooded paddy test; details: for Plant response rating, Flood, Ducksalad: 250 g ai/ha, flooded paddy test, visual rating on 0 to 100 scale (0 no effect, 100 complete control) after 13 to 15 days; for Plant response rating, Ducksalad: Flood (flooded paddy test), 13 to 15 days
Summary of the method: as §1

[4] = test system: barnyardgrass (Echinochloa crus-galli); test: Test B flooded paddy test; details: for Plant response rating, Flood, Barnyardgrass: 250 g ai/ha, flooded paddy test, visual rating on 0 to 100 scale (0 no effect, 100 complete control) after 13 to 15 days; for Plant response rating, Barnyardgrass: Flood (flooded paddy test), 13 to 15 days
Summary of the method: as §1

[5] = test system: velvetleaf (Abutilon theophrasti); test: Test A pre-/postemergence plant response
Summary of the method: (§2)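 Injury was scored visually after roughly ten days against untreated controls, 0 = no effect, 100 = complete control. Test chemicals in a surfactant-containing non-phytotoxic solvent were sprayed either onto soil preemergence or onto one- to two-leaf, 2–10 cm plants postemergence.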

[6] = test system: large crabgrass (Digitaria sanguinalis); test: Test A pre-/postemergence plant response
Summary of the method: as §2

[7] = test system: giant foxtail (Setaria faberii); test: Test A pre-/postemergence plant response
Summary of the method: as §2

corn (Zea mays) = test: Test A pre-/postemergence plant response
Summary of the method: as §2

[8] = test system: wheat (Triticum aestivum); test: Test A pre-/postemergence plant response
Summary of the method: as §2

[9] = test system: pigweed (Amaranthus retroflexus); test: Test A pre-/postemergence plant response
Summary of the method: as §2

[10] = test system: morningglory (Ipomoea spp.); test: Test A pre-/postemergence plant response
Summary of the method: as §2

[11] = test system: barnyardgrass (Echinochloa crus-galli); test: Test A pre-/postemergence plant response
Summary of the method: as §2

[12] = 31 g ai/ha, scale 0 to 100 (0 no effect, 100 complete control)
[13] = 62 g ai/ha, scale 0 (no effect) to 100 (complete control), 13 to 15 days
[14] = 125 g ai/ha, visual rating after 13 to 15 days, scale 0 (no effect) to 100 (complete control)
[15] = 31 g ai/ha, scale of 0 to 100 where 0 is no effect and 100 is complete control
[16] = 62 g ai/ha, scale 0 to 100, 0 is no effect, 100 is complete control
[17] = 125 g ai/ha, scale 0 to 100, 0 is no effect, 100 is complete control
[18] = Postemergence, 125 g ai/ha, visual injury, 0 to 100 scale (0 no effect, 100 complete control), approx. ten days
[19] = Postemergence, 500 g ai/ha, 0 to 100 scale, 0 = no effect, 100 = complete control, approx. ten days
[20] = Preemergence, 125 g ai/ha, 0 to 100 scale, 0 = no effect, 100 = complete control
[21] = Preemergence, 500 g ai/ha, visual injury, 0 to 100 scale (0 no effect, 100 complete control), approx. ten days

2-(3,5-difluorophenyl)-5-[(2-hydroxy-4-oxobicyclo[3.2.1]oct-2-en-3-yl)carbonyl]-3-(2-methoxyethyl)-4(3H)-pyrimidinone [Compound 243]
80: Windgrass plant response rating [1] | Foxtail, Giant plant response rating [7, 18] | Morningglory plant response rating [10, 18] | Barnyardgrass plant response rating [11, 18]
70: Plant response rating, Sedge, Umbrella [2, 17] | Plant response rating, Velvetleaf [5, 20] | Crabgrass, Large plant response rating [6, 18] | Plant response rating, Corn (corn (Zea mays); [19])
90: Plant response rating, Crabgrass, Large [6, 19] | Plant response rating, Crabgrass, Large [6, 20] | Plant response rating, Foxtail, Giant [7, 19] | Plant response rating, Foxtail, Giant [7, 21] | Plant response rating, Morningglory [10, 19] | Plant response rating, Morningglory [10, 21]
55: Plant response rating, Windgrass [1, 13]
100: Velvetleaf plant response rating [5, 18] | Plant response rating, Velvetleaf [5, 19] | Plant response rating, Velvetleaf [5, 21] | Plant response rating, Crabgrass, Large [6, 21] | Pigweed plant response rating [9, 18] | Plant response rating, Pigweed [9, 19] | Plant response rating, Pigweed [9, 21] | Plant response rating, Barnyardgrass [11, 19] | Plant response rating, Barnyardgrass [11, 21]
0: Plant response rating, Sedge, Umbrella [2, 15] | Plant response rating, Flood, Rice (rice (Oryza sativa)) | Plant response rating, Rice (rice (Oryza sativa); [15]) | Plant response rating, Rice (rice (Oryza sativa); [16]) | Plant response rating, Rice (rice (Oryza sativa); [17]) | Plant response rating, Ducksalad [3, 15] | Plant response rating, Barnyardgrass [4, 15] | Plant response rating, Barnyardgrass [4, 16] | Plant response rating, Barnyardgrass [4, 17] | Plant response rating, Corn (corn (Zea mays); [20]) | Plant response rating, Corn (corn (Zea mays); [21]) | Wheat plant response rating [8, 18] | Plant response rating, Wheat [8, 20] | Plant response rating, Wheat [8, 21] | Plant response rating, Barnyardgrass [11, 20]
40: Plant response rating, Foxtail, Giant [7, 20] | Plant response rating, Wheat [8, 19]
50: Plant response rating, Windgrass [1, 12] | Plant response rating, Flood, Barnyardgrass [4] | Plant response rating, Pigweed [9, 20]
30: Plant response rating, Sedge, Umbrella [2, 16] | Plant response rating, Ducksalad [3, 16]
60: Plant response rating, Windgrass [1, 14] | Plant response rating, Ducksalad [3, 17]
10: Corn plant response rating (corn (Zea mays); [18])
75: Plant response rating, Flood, Sedge, Umbrella [2] | Plant response rating, Flood, Ducksalad [3]
20: Plant response rating, Morningglory [10, 20]

5-[(1-ethyl-5-hydroxy-1H-pyrazol-4-yl)carbonyl]-2-phenyl-3-(phenylmethyl)-4(3H)-pyrimidinone [Compound 20]
80: Plant response rating, Velvetleaf [5, 20] | Plant response rating, Crabgrass, Large [6, 21] | Plant response rating, Pigweed [9, 20] | Morningglory plant response rating [10, 18]
90: Plant response rating, Velvetleaf [5, 21] | Crabgrass, Large plant response rating [6, 18] | Plant response rating, Crabgrass, Large [6, 19] | Plant response rating, Morningglory [10, 19] | Plant response rating, Barnyardgrass [11, 19]
60: Plant response rating, Flood, Sedge, Umbrella [2] | Plant response rating, Sedge, Umbrella [2, 17] | Plant response rating, Foxtail, Giant [7, 19] | Plant response rating, Barnyardgrass [11, 21]
70: Plant response rating, Flood, Ducksalad [3] | Plant response rating, Ducksalad [3, 17]
5: Windgrass plant response rating [1]
0: Plant response rating, Windgrass [1, 12] | Plant response rating, Windgrass [1, 13] | Plant response rating, Windgrass [1, 14] | Plant response rating, Flood, Rice (rice (Oryza sativa)) | Plant response rating, Rice (rice (Oryza sativa); [15]) | Plant response rating, Rice (rice (Oryza sativa); [16]) | Plant response rating, Rice (rice (Oryza sativa); [17]) | Plant response rating, Ducksalad [3, 15] | Plant response rating, Ducksalad [3, 16] | Plant response rating, Flood, Barnyardgrass [4] | Plant response rating, Barnyardgrass [4, 15] | Plant response rating, Barnyardgrass [4, 16] | Plant response rating, Barnyardgrass [4, 17] | Plant response rating, Foxtail, Giant [7, 20] | Corn plant response rating (corn (Zea mays); [18]) | Plant response rating, Corn (corn (Zea mays); [20]) | Plant response rating, Corn (corn (Zea mays); [21]) | Wheat plant response rating [8, 18] | Plant response rating, Wheat [8, 20] | Plant response rating, Wheat [8, 21] | Plant response rating, Morningglory [10, 20]
10: Plant response rating, Foxtail, Giant [7, 21] | Plant response rating, Corn (corn (Zea mays); [19]) | Plant response rating, Wheat [8, 19]
30: Foxtail, Giant plant response rating [7, 18] | Plant response rating, Barnyardgrass [11, 20]
100: Velvetleaf plant response rating [5, 18] | Plant response rating, Velvetleaf [5, 19] | Pigweed plant response rating [9, 18] | Plant response rating, Pigweed [9, 19] | Plant response rating, Pigweed [9, 21] | Plant response rating, Morningglory [10, 21]
50: Plant response rating, Sedge, Umbrella [2, 16] | Plant response rating, Crabgrass, Large [6, 20] | Barnyardgrass plant response rating [11, 18]
40: Plant response rating, Sedge, Umbrella [2, 15]
